Structures can show the parent of a compound that is named as a salt.
Test system: epidermal growth factor receptor (HeLa cells)
Assay: Epidermal growth factor binding inhibition assay: 125I-EGF binding to HeLa cells after treatment with phototherapeutic and UVA
Format: cell-based, human
Settings: cells pulsed with 2.1 J/cm^2 of ultraviolet light (UVA, 320-400 nm) after treatment, 2 nM 125I-EGF, 2 h at 4° C., read-out: IC50, concentration of each compound inhibiting 125I-EGF binding to HeLa cells by 50%
Excerpt: The primary in vitro screen for the phototherapeutics described herein is based on our discovery that beneficial phototherapeutics inhibit binding in cells of epithelial origin with epidermal growth factor (EGF). Furthermore, the degree of effective competition in this EGF binding assay relates to the phototherapeutic effect of the test agent. [J. Laskin, E. Lee, D. Laskin, M. Gallo, Proc. Nat. Acad. Sci. (U.S.A.) 83:8211 (1986)].
Inhibition of EGF binding is dependent on dose of the phototherapeutic and on the quanta of light in the 320-400 nm wavelength (ultraviolet light A). It is also structure-dependent, that is, there is a direct correlation between those specific phototherapeutics currently used that are clinically active and their ability to inhibit the binding of epidermal growth factor to its receptor.
The ability of the above compounds in the presence of ultraviolet light, to inhibit epidermal growth factor binding to its cell surface receptor is directly related to its phototherapeutic potential. To assay these compounds for this biological activity, human cells (HeLa) grown in vitro were used. Cells (1.8×10^4 /cm^2) were inoculated into 5 cm culture dishes in growth medium consisting of Dulbecco's modified Eagle's medium supplemented with 10% newborn calf serum. After 4-5 days at 37° C. in a humidified CO2 incubator, the cells were washed three times with 2 ml of phosphate buffered saline and then incubated with the different phototherapeutics in 2 ml of Earle's salt solution supplemented with 5.2 mM D-glucose/25 mM Hepes buffer, pH 7.2. Control cultures were incubated in 2 ml of Earle's salt solution in the absence of the test drugs. After 30 minutes, the cells were then exposed to ultraviolet light (UVA, 320-400 nm) emitted from a bank of four BLB fluorescent light tubes (F40BL/Sylvania) placed approximately 10 cm above the cell culture plates. The incident light delivered onto the culture plates was 3.4 mW per cm^2 as measured with an International Light UV-Radiometer and the cells received 2.1 J/cm^2 of UVA light. After this light exposure, the cells were rinsed with phosphate buffered saline and submitted for assay of epidermal growth factor binding. Phototherapeutic treated cells were then incubated for 2 hours at 4° C. with 2 ml of binding buffer (Dulbecco's modified Eagle's medium/25 mM Hepes buffer, pH 7.2) containing 2 nM labeled epidermal growth factor (^125 I-EGF, specific activity 200 Ci/g).
Nonspecific binding was determined by incubating separate plates of cells with buffer containing the radioligand and excess unlabeled epidermal growth factor (1 microgram/ml). The binding reaction of the radioligand to the cells was terminated by aspirating the binding buffer from the culture dishes and washing the cells four times with ice cold phosphate buffered saline. The cells were then solubilized with 2 ml of 0.2M NaOH and duplicate 0.5 ml aliquots were taken for gamma counting. Specific binding of epidermal growth factor to its receptor was calculated by subtracting nonspecifically bound material from the total. Under the conditions of the assay, specific epidermal growth factor receptor binding represented greater than 80% of the total bound to the cells.
As a specific example of this assay, HeLa cells were treated with 4',5'-dihydropsoralen, followed by ultraviolet light exposure and then by measurement for epidermal growth factor binding. The data can be presented as a curve of epidermal growth factor receptor binding to the cells as a percentage of untreated cells. FIG. 1 is an example of 125-I EGF binding inhibition of 4',5'-dihydropsoralen and UVA. The concentration inhibiting epidermal growth factor binding to the cells by 50% (the IC50 value) is determined from the curve.
*IC50, concentration of each compound inhibiting 125I-EGF binding to
**Following treatment of the cells with the phototherapeutic they were
***Highest concentration tested

`Cc1oc2c(C)c3oc(=O)cc(C)c3cc2c1C[N+](C)(C)C` [4'-[(N,N,N,-trimethylannonium)methyl]-4,5',8-trimethylpsoralen iodide salt] and `Cc1cc(=O)oc2c(C)c3c(cc12)CC(C)O3` (stereo not drawn) [4,5',8-trimethyl-4',5'-dihydropsoralen] are within 1.5-fold of each other in IC50: 5 µM for the first, 7 µM for the second.

With `O=c1ccc2ccccc2o1` [coumarin, reference compound] the IC50 was > 100 µM.

Same assay, conditions: read-out: IC50, concentration of each compound inhibiting 125I-EGF binding to HeLa cells by 50%, cells pulsed with 2.1 J/cm^2 of ultraviolet light (UVA, 320-400 nm) after treatment, 2 nM 125I-EGF, 2 h at 4° C.

Compared with `CCOC(=O)c1cc2cc3c(cc2oc1=O)OCC3` [3-carboethoxy-4',5'-dihydropsoralen], `O=c1ccc2cc3c(cc2o1)OCC3` [4',5'-dihydropsoralen] is 2.2-fold higher in IC50: 4.9 µM for the first, 11 µM for the second. The first is the more potent here.

Compared with `Cc1c([N+](=O)[O-])c(=O)oc2c(C)c3c(cc12)CC(C)O3` (stereo not drawn) [3-nitro-4,5',8-trimethyl-4',5'-dihydropsoralen], `Cc1cc2cc3c(C)cc(=O)oc3c(C)c2o1` [4,5',8-trimethylpsoralen, reference compound] is 3.6-fold lower in IC50: 24 µM for the first, 6.6 µM for the second.

Compared with `Cc1cc(=O)oc2c(C)c3oc(CBr)c(Br)c3cc12` [4'-Bromo-5'-bromomethyl-4,8-dimethylpsoralen], `Cc1cc(=O)oc2c(C)c3oc(CBr)cc3cc12` [5'-bromomethyl-4,8-dinethylpsoralen, 5'-Bromomethyl-4,8-dimethylpsoralen] is 2.4-fold lower in IC50: 3.6 µM for the first, 1.5 µM for the second.

Compared with `Cc1cc(=O)oc2c(C)c3oc(C[n+]4ccccc4)cc3cc12` [5'-[(N-Pyridinium)methyl]-4,8-dimethylpsoralen Bromide Salt], `COc1c2ccoc2cc2oc(=O)ccc12` [5-methoxypsoralen (5-MOP), 5-methoxypsoralen, reference compound] is 2.2-fold higher in IC50: 0.74 µM for the first, 1.6 µM for the second.

In the case of `COc1c2c(cc3oc(=O)ccc13)OCC2` [5-methoxy-4',5'-dihydropsoralen], the IC50 is reported as 2.8 µM.

Source: patent US5473083A, “Reduced and quaternized psoralens as photo-activated therapeutics” (Lehigh University, priority 1994, dated 1995)
